Measured values reported in US8541590B2, “Proteasome inhibitors and processes for their preparation, purification and use” (Cephalon, Inc., priority 2009, dated 2013).
Marks after values point to notes of the source that are not given here.

Experiments:
[1] = Storage stability of boronic ester of Formula X, bulk solid state drug substance (Example 9); type: physicochemical
Protocol: Bulk solid state drug substance was put in polyethylene (PE) double bag in high-density polyethylene (HDPE) containers and the containers were stored under three conditions: (a) 4° C., (b) 25° C./60% relative humidity (RH), and (c) 40° C./75% RH.
6-(2S,3R)—N-[(1R)-1-(1,3,6,2-dioxazaborocan-2-yl)-3-methylbutyl}-3-hydroxy-2-{(6-phenylpyridin-2-yl)formamido]butanamide converts to [(1R)-1-[[(2S,3R)-3-Hydroxy-2-[[(6-phenylpyridin-2-yl)carbonyl]amino]-1-oxobutyl]amino]-3-methylbutyl]boronic acid (i.e., Compound 1) as soon as it is in the presence of an aqueous phase. Therefore, HPLC analysis of purity was of the [(1R)-1-[[(2S,3R)-3-Hydroxy-2-[[(6-phenylpyridin-2-yl)carbonyl]amino]-1-oxobutyl]amino]-3-methylbutyl]boronic acid hydrolysis product. Stability was tested at time zero (T0), and after storage for one month (1M), six months (6M) and (except for the 40° C./75% RH conditions) one year (12M).

[2] = Comparative storage stability of Compound 1, Batches A, B, C (Example 9A); type: physicochemical
Protocol: Three (3) separate batches of Compound 1 were tested for storage stability. The batches are identified as Batch A, Batch B, and Batch C below. Bulk solid state drug substance was put in polyethylene (PE) double bag in high-density polyethylene (HDPE) containers and the containers were stored under the indicated conditions.

[3] = Occupational exposure limit (OEL)
[4] = Comparative bioavailability of bortezomib and boronic ester of Formula XI in rat, Example 10 (i.v.; p.o. in saline); type: in vivo, male Sprague Dawley rats; settings: male, Sprague Dawley, iv, bortezomib in plasma, 0.8 mg/kg, mean ± SEM
Protocol: Three adult male Sprague Dawley rats were used in each treatment group. The rats were fasted overnight prior to oral dose administration. Intravenous administration was via the lateral tail vein and oral doses were administered by gavage. The compound was administered iv in a vehicle of 3% DMSO:30% Solutol:67% phosphate buffered saline. Oral dosing was in phosphate buffered saline.
For blood collection, each rat (unanesthetized) was placed in a clear Plexiglas® restraining tube, and blood samples (approximately 0.25 mL) were drawn from a lateral tail vein into heparinized collection tubes at predetermined sampling times (0.083, 0.25, 0.5, 1, 2, 4, and 6 hours post dose). No pre-dose samples were obtained. The exception to this procedure was the last sampling time in which the animals were sacrificed by decapitation and trunk blood was obtained rather than blood via a tail vein. The blood samples were placed on wet ice until centrifuged to separate plasma. The plasma fraction was transferred into clean dry tubes, frozen on dry ice and stored at approximately −20° C. pending analysis.
Plasma was prepared for high performance liquid chromatography (HPLC)/mass spectrometric analysis according to standard protocol following protein precipitation with acetonitrile containing an internal standard. The plasma samples were then analyzed for both bortezomib and alprenolol (internal standard) via HPLC coupled with tandem mass spectrometry.
The plasma concentration data for all rats were entered into Excel spreadsheets in preparation for pharmacokinetic analysis. Pharmacokinetic parameters for bortezomib were estimated for each rat by non-compartmental analysis (Gibaldi M, Perrier D. Pharmacokinetics, 2nd edition, Marcel Dekker, New York, Chapter 11, 1982) of the plasma concentration versus time data using WinNonlin software (Professional Version 4.1, Pharsight Corporation, Palo Alto, Calif., 1997).
The maximum plasma concentration (Cmax) was the highest observed plasma concentration after an oral dose; tmax was the corresponding time when Cmax was observed. The terminal rate constant for elimination from plasma (β) was estimated by linear regression of the terminal portion of the semi-logarithmic plasma concentration versus time curve. The apparent terminal half-life (t1/2) was calculated as 0.693 divided by β. The area under the plasma concentration versus time curve from time zero to the time of the last measurable concentration (AUC0-t) after a single dose was determined by the linear trapezoidal rule. The area from zero to infinity (AUC0-∞) was calculated as the sum of AUC0-t and the area extrapolated from the last measurable concentration to infinity (Clast/β). Concentrations pre dose were all assumed to be zero for the purpose of calculation of the AUC. Oral bioavailability was determined by dividing the dose normalized oral AUC0-∞ by the AUC0-∞ from iv dosing and multiplying by 100 to express the ratio as a percent.

[5] = Batch B, 5° C./ambient RH, 1 Month
[6] = Batch B, 5° C./ambient RH, 3 Month
[7] = Batch B, 5° C./ambient RH, 6 Month
[8] = Batch C, 5° C./ambient RH, 1 Month
[9] = Batch C, 5° C./ambient RH, 3 Month
[10] = Batch C, 5° C./ambient RH, 6 Month
[11] = Batch C, 5° C./ambient RH, 12 Month

## 6-(2S,3R)—N-[(1R)-1-(1,3,6,2-dioxazaborocan-2-yl)-3-methylbutyl}-3-hydroxy-2-{(6-phenylpyridin-2-yl)formamido]butanamide [boronic ester of Formula X]
[1]; 4° C., 1 M
  Appearance: White to off-
[1]; 4° C., 6 M
  Appearance: White to off-
[1]; 4° C., 12 M
  Appearance: White to off-
[1]; 4° C./ambient RH, 1 M
  Chemical purity (%): 99.8%
  Impurity by HPLC (%) RRT = 0.49: 0.06%
  Impurity by HPLC (%) RRT = 1.18: 0.17%
[1]; 4° C./ambient RH, 6 M
  Chemical purity (%): 99.9%
[1]; 4° C./ambient RH, 12 M
  Chemical purity (%): 99.9%
  Impurity by HPLC (%) RRT = 1.18: 0.07%
[1]; 25° C./60% RH, 1 M
  Appearance: White to off-
  Chemical purity (%): 99.6%
  Impurity by HPLC (%) RRT = 0.49: 0.09%
  Impurity by HPLC (%) RRT = 1.18: 0.32%
[1]; 25° C./60% RH, 6 M
  Appearance: White to off-
  Chemical purity (%): 99.8%
  Impurity by HPLC (%) RRT = 0.49: 0.08%
  Impurity by HPLC (%) RRT = 1.18: 0.06%
[1]; 25° C./60% RH, 12 M
  Appearance: White to off-
  Chemical purity (%): 99.9%
  Impurity by HPLC (%) RRT = 0.49: 0.07%
  Impurity by HPLC (%) RRT = 1.18: 0.08%
[1]; 40° C./75% RH, 1 M
  Appearance: White to off-
  Chemical purity (%): 99.7%
  Impurity by HPLC (%) RRT = 0.49: 0.10%
  Impurity by HPLC (%) RRT = 1.18: 0.18%
[1]; 40° C./75% RH, 6 M
  Appearance: White to off-
  Chemical purity (%): 99.8%
  Impurity by HPLC (%) RRT = 0.49: 0.10%
  Impurity by HPLC (%) RRT = 1.18: 0.11%
[1]; T0
  Appearance: White to off-
  Impurity by HPLC (%) RRT = 1.18: 0.50%
[1]; T0, HPLC of Compound 1 hydrolysis product
  Chemical purity (%): 99.5%

## CC(C)C[C@H](NC(=O)[C@@H](NC(=O)c1cccc(-c2ccccc2)n1)[C@@H](C)O)B(O)O [Compound 1, [(1R)-1-[[(2S,3R)-3-hydroxy-2-[6-phenyl-pyridine-2-carbonyl)amino]-1-oxobutyl]amino]-3-methylbutylboronic acid]
[2]; Batch A, 4° C./ambient RH, 3 M
  HPLC Purity (%): 94.5%
[2]; Batch A, 4° C./ambient RH, 3 Months
  Appearance: White to off-
[2]; Batch A, 4° C./ambient RH, 6 M
  HPLC Purity (%): 94.1%
[2]; Batch A, 4° C./ambient RH, 6 Months
  Appearance: White to off-
[2]; Batch A, 25° C./60% RH, 3 M
  HPLC Purity (%): 94.4%
[2]; Batch A, 25° C./60% RH, 3 Months
  Appearance: White to off-
[2]; Batch A, 25° C./60% RH, 6 M
  HPLC Purity (%): 94.1%
[2]; Batch A, 25° C./60% RH, 6 Months
  Appearance: White to off-
[2]; Batch A, 40° C./75% RH, 3 M
  HPLC Purity (%): 93.2%
[2]; Batch A, 40° C./75% RH, 3 Months
  Appearance: White to off-
[2]; Batch A, 40° C./75% RH, 6 M
  HPLC Purity (%): 88.7%
[2]; Batch A, 40° C./75% RH, 6 Months
  Appearance: White to off-
[2]; Batch A, T0
  Appearance: White to off-
[2]; Batch A, T0 (estimated)
  HPLC Purity (%): 95.3* %
[2]; [5]
  Appearance: White powder
  Assay by HPLC (anhydrous) (%): 97.1%
  Assay by HPLC (as-is) (%): 90.6%
  Total Impurities (%): 3.0%
  Water Content (%): 6.0%
[2]; [6]
  Appearance: White
  Assay by HPLC (anhydrous) (%): 94.0%
  Assay by HPLC (as-is) (%): 87.5%
  Total Impurities (%): 5.9%
  Water Content (%): 6.1%
[2]; [7]
  Appearance: White powder
  Assay by HPLC (anhydrous) (%): 93.5%
  Assay by HPLC (as-is) (%): 85.1%
  Total Impurities (%): 7.3%
  Water Content (%): 8.2%
[2]; Batch B, 5° C./ambient RH, T0
  Appearance: White
  Assay by HPLC (anhydrous) (%): 101.7%
  Assay by HPLC (as-is) (%): 94.4%
  Total Impurities (%): 0.6%
  Water Content (%): 6.5%
[2]; [8]
  Appearance: White to yellow
  Assay by HPLC (anhydrous) (%): 97.0%
  Assay by HPLC (as-is) (%): 91.4%
  HPLC Purity (%): 97.2%
  Water Content (%): 4.59%
[2]; [9]
  Appearance: White to yellow
  Assay by HPLC (anhydrous) (%): 102.4%
  Assay by HPLC (as-is) (%): 94.6%
  HPLC Purity (%): 96.2%
  Water Content (%): 6.48%
[2]; [10]
  Appearance: Off-white
  Assay by HPLC (anhydrous) (%): 99.9%
  Assay by HPLC (as-is) (%): 91.0%
  HPLC Purity (%): 96.3%
  Water Content (%): 7.74%
[2]; [11]
  Appearance: Off-white
  Assay by HPLC (anhydrous) (%): 95.9%
  Assay by HPLC (as-is) (%): 87.0%
  HPLC Purity (%): 96.2%
  Water Content (%): 8.16%
[2]; Batch C, 5° C./ambient RH, T0
  Appearance: Yellowish
  Assay by HPLC (anhydrous) (%): 98.1%
  Assay by HPLC (as-is) (%): 92.9%
  HPLC Purity (%): 98.2%
  Water Content (%): 4.16%
[2]; within six months, refrigerated conditions
  increase of total impurities: more than 10 fold
[3]
  occupational exposure limit (OEL): 0.3 μg/m^3

## CC(C)C[C@H](NC(=O)[C@H](Cc1ccccc1)NC(=O)c1cnccn1)B(O)O [bortezomib, [(1R)-3-methyl-1-({(2S)-3-phenyl-2-[(pyrazin-2-ylcarbonyl)amino]propanoyl}amino)butyl]boronic acid]
[4]; n = 3
  AUC(0-inf): 472 ± 127 ng·h/mL
  AUC(0-t): 459 ± 127 ng·h/mL
  Vd: 2.4 ± 0.8 L/kg
  clearance: 34 ± 11 mL/min/kg
[4]; n = 3, read-out: t1/2, h (converted)
  half-life: 48 ± 6 min
